{"source": "patent US20230285357A1", "about": "“COMPOSITIONS AND METHODS FOR […] CELLS” (The Regents of the University of California, priority 2020, published 2023)", "key": {"[1]": {"test_system": "Flk1-eGFP osteoblasts (mouse osteoblast line MC3T3)", "assay": "High throughput screen for eGFP expression in Flk1-eGFP osteoblasts", "type": "cell-based", "details": "after 14 days of treatment", "excerpt": "A high throughput screen was generated by modifying the mouse osteoblast line MC3T3. Fetal liver kinase 1 (Flk1) promoter-driven enhanced green fluorescent protein (eGFP) was introduced into these osteoblasts. […] Several libraries of small molecules, including a FDA-approved drug library, a UCLA in-house collection, and a custom set of compounds were screened. These libraries contained more than 22,000 small molecules ranging from natural products to synthesized compounds. […] It was further determined the specificity of endothelial differentiation by closely examining other vascular lineage markers including smooth muscle cells (SMCs), pericytes, and fibroblasts by using real-time PCR. […] Because GSK3 is important in glucose metabolism, the expression of genes related to glucose metabolism was determined in the SB216763-treated osteoblasts, such as casein kinase 2, glucose transporter 4, and insulin receptor substrates 1 and 2.\nMC3T3 cells were stably infected with Flk1 promoter-driven eGFP by using Flk1-eGFP lentivirus (GeneCopoeia™). […] The plates were transferred and delivered by a Thermo Scientific™ Spinnaker™ Robot (ThermoFisher Scientific). eGFP expression was determined and imaged using a FlexStation II and Victor 3V (Perkin Elmer) every day for two weeks."}, "[2]": {"test_system": "mouse osteoblast line MC3T3", "assay": "Flow cytometric analysis of SB216763-treated osteoblasts with anti-CD31 and anti-VE-cadherin antibodies", "type": "cell-based", "excerpt": "A high throughput screen was generated by modifying the mouse osteoblast line MC3T3. Fetal liver kinase 1 (Flk1) promoter-driven enhanced green fluorescent protein (eGFP) was introduced into these osteoblasts. […] Several libraries of small molecules, including a FDA-approved drug library, a UCLA in-house collection, and a custom set of compounds were screened. These libraries contained more than 22,000 small molecules ranging from natural products to synthesized compounds. […] Using arrange of dose (1-10 μM), it is shown that the reduction of the osteogenic markers Cbfa1, osterix and osteocalcin and the induction of the endothelial markers CD34, VE-cadherin, CD31 and eNOS occurred in a dose-dependent manner (FIG. 1, Part E). Osteoblasts were then treated with 10 μM SB216763 and examined the time-course expression of these osteogenic and endothelial markers. […] It was further determined the specificity of endothelial differentiation by closely examining other vascular lineage markers including smooth muscle cells (SMCs), pericytes, and fibroblasts by using real-time PCR. […] Because GSK3 is important in glucose metabolism, the expression of genes related to glucose metabolism was determined in the SB216763-treated osteoblasts, such as casein kinase 2, glucose transporter 4, and insulin receptor substrates 1 and 2. […]"}, "[3]": {"test_system": "mouse osteoblast line MC3T3", "assay": "Real-time PCR of osteogenic, endothelial and other lineage markers in treated mouse osteoblasts", "type": "cell-based", "excerpt": "A high throughput screen was generated by modifying the mouse osteoblast line MC3T3. Fetal liver kinase 1 (Flk1) promoter-driven enhanced green fluorescent protein (eGFP) was introduced into these osteoblasts. […] Several libraries of small molecules, including a FDA-approved drug library, a UCLA in-house collection, and a custom set of compounds were screened. These libraries contained more than 22,000 small molecules ranging from natural products to synthesized compounds. […] Using arrange of dose (1-10 μM), it is shown that the reduction of the osteogenic markers Cbfa1, osterix and osteocalcin and the induction of the endothelial markers CD34, VE-cadherin, CD31 and eNOS occurred in a dose-dependent manner (FIG. 1, Part E). Osteoblasts were then treated with 10 μM SB216763 and examined the time-course expression of these osteogenic and endothelial markers. […] To determine if a mesenchymal stage or emerging stemness is required for SB216763 to induce osteoblastic-endothelial transdifferentiation, mesenchymal and stem cell markers were examined and found no induction in the SB216763-treated cells (FIG. 9, Part E). It was further determined the specificity of endothelial differentiation by closely examining other vascular lineage markers including smooth muscle cells (SMCs), pericytes, and fibroblasts by using real-time PCR. In addition, no-vascular lineages, such as cardiac, neuronal, hepatic, pulmonary, renal, hematopoietic and adipogenic lineages were examined. […] Because GSK3 is important in glucose metabolism, the expression of genes related to glucose metabolism was determined in the SB216763-treated osteoblasts, such as casein kinase 2, glucose transporter 4, and insulin receptor substrates 1 and 2.\nReal-time PCR analysis was performed as previously described. Glyceraldehyde 3-phosphate dehydrogenase (GAPDH) was used as a control gene. Primers and probes for mouse and human Cbfa1, ostrix, osteocalcin, CD34, VE-cadherin, CD31, eNOS, SMAD1, and β-catenin, were obtained from Applied Biosystems as part of Tagman® Gene Expression Assays."}, "osteoblasts": {"test_system": "osteoblasts", "assay": "Osteogenesis assay in osteogenic induction media, von Kossa staining", "type": "cell-based, mouse", "description": "To assess the functional capacity of SB216763-treated osteoblasts, they were treated with osteogenic induction media in vitro. […] A transplantation experiment was then performed to examine the capacity for bone formation using a well-established bone formation assay in vivo. This assay was adapted and eGFP positive cells were used, which were isolated from SB216763-treated Flk1-eGFP osteoblasts (FIG. 2, Part A).\nThe cells were then subjected to osteogenic induction media. […] Cells was transplanted into nude mice to test ectopic bone formation."}, "SMAD1 and β-catenin": {"test_system": "SMAD1 and β-catenin", "assay": "Immunoblotting of SMAD1, phosphorylated SMAD1 and β-catenin in treated osteoblasts", "type": "cell-based, mouse", "details": "different doses", "excerpt": "The expression of transcription factors that are known to be involved in bone formation or vascular development were screened. […] To determine if excess β-catenin affected SMAD1 expression, β-catenin in SB216763-treated osteoblasts was depleted by using siRNA. […] DNA-binding sites of β-catenin by locating the binding motifs in Smad1 gene was explored, and identified four individual sites located at −196 bp, −1454 bp, −2805 bp and −4729 bp upstream of exon1 of Smad1 gene (FIG. 3, Part D). […] Then, transcriptional status of Smad1 was determined by examining the histone modification, including trimethylated histone H3 lysine 4 (H3K4me3) associated with active transcription and H3K27me3 a closed chromatin mark.\nImmunoblotting was performed as previously described. Equal amounts of tissue lysates were used for immunoblotting. Blots were incubated with specific antibodies to SMAD1, GSK3α and GSK3β (all from Cell Signaling Technology, 9743, 433T and 93115), β-catenin and cbfa1 (all from R&D system, AF1329 and MAB2006), osterix (Santa Cruz Biotechnology, sc-22536), Flk1 and VE-cadherin (all from BD Bioscience, 55307 and 562242), vWF (Dako, A0082). 3-Actin (Sigma-Aldrich, A2228) was used as a loading control. Immunofluorescence was performed as previously described in detail. […]"}, "[4]": {"test_system": "aortic cells of Osx-GfptgMgp−/− mice", "assay": "Osteoblastic-lineage tracing in Osx-GfptgMgp−/− mice, FACS of aortic cells", "type": "in vivo, mouse", "details": "Osx-GfptgMgp−/− mice treated for 2 weeks", "description": "(§1) Then, mice were treated with or without SB216763 for 2 weeks. […] Then, the alteration of GFP and CD31 double positive cells (GFP+CD31+) were characterized after SB216763 treatment. […] Same numbers of cells of each group were used to perform a transplantation experiment to examine the capacity of bone formation by using bone formation assay in vivo.\nFACS analysis was performed as previously described. The cells were stained with fluorescein isothiocyanate (FITC)-, phycoerythrin (PE)-, or Alexa Fluor 488 (AF-488)-conjugated antibodies against CD31 and VE-cadherin (all from BD biosciences, 550274 and 562243), osterix (Santa Cruz Biotechnology, sc-22536). Nonspecific fluorochrome- and isotype-matched IgGs (BD Pharmingen) served as controls."}, "GFP+CD31+ aortic cells": {"test_system": "GFP+CD31+ aortic cells", "assay": "Bone formation assay in vivo with GFP+CD31+ aortic cells of treated mice", "set-up": "species or system mouse", "description": "as §1"}, "[5]": {"details": "dose range 1-10 μM, dose-dependent manner"}}}
{"molecule": "Cn1cc(C2=C(c3ccc(Cl)cc3Cl)C(=O)NC2=O)c2ccccc21", "note": "[SB216763]", "values": [{"measurement": "cell morphology", "setting": "[1]", "result": "converted osteoblasts into EC-like morphology"}, {"measurement": "eGFP expression", "setting": "[1]", "result": "strongly activated eGFP expression"}, {"measurement": "treated osteoblasts expressing the endothelial markers CD31 and VE-cadherin", "setting": "[2]", "result": "more than 85%"}, {"measurement": "time-course expression of osteogenic and endothelial markers", "setting": "[3]; 10 μM", "result": "a reduction of osteogenic markers preceded the induction of the endothelial markers"}, {"measurement": "expression of endothelial markers CD34, VE-cadherin, CD31 and eNOS", "setting": "[3]; [5]", "result": "induction"}, {"measurement": "expression of osteogenic markers Cbfa1, osterix and osteocalcin", "setting": "[3]; [5]", "result": "reduction"}, {"measurement": "other vascular and non-vascular lineage markers (SMC, pericyte, fibroblast, cardiac, neuronal, hepatic, pulmonary, renal, hematopoietic, adipogenic)", "setting": "[3]; real-time PCR", "result": "No changes were found"}, {"measurement": "mesenchymal and stem cell markers", "setting": "[3]; treated cells", "result": "no induction"}, {"measurement": "expression of genes related to glucose metabolism (casein kinase 2, glucose transporter 4, insulin receptor substrates 1 and 2)", "setting": "[3]; treated osteoblasts", "result": "No changes were detected"}, {"measurement": "mineralization, von Kossa staining", "setting": "osteoblasts; SB216763-treated cells after restoring SMAD1 or depletion of β-catenin", "result": "clear mineralization"}, {"measurement": "mineralization, von Kossa staining", "setting": "osteoblasts; SB216763-treated cells in osteogenic induction media", "result": "lack of mineralization"}, {"measurement": "expression and phosphorylation of SMAD1", "setting": "SMAD1 and β-catenin", "result": "dose-dependent decrease"}, {"measurement": "β-catenin protein level", "setting": "SMAD1 and β-catenin", "result": "robust increase"}, {"measurement": "aortic cells co-expressing GFP and CD31, FACS", "setting": "[4]", "result": "decreased number of cells that co-expressed GFP and CD31"}, {"measurement": "aortic cells expressing only CD31, FACS", "setting": "[4]", "result": "increased number of cells that only expressed CD31"}, {"measurement": "osteocytes in implants, histology", "setting": "GFP+CD31+ aortic cells; implants with GFP+CD31+ aortic cells of treated group", "result": "lack of osteocytes"}, {"measurement": "ectopic bone by Micro-CT", "setting": "GFP+CD31+ aortic cells; implants with GFP+CD31+ aortic cells of treated group vs controls", "result": "smaller size of ectopic bone, less trabecular formation and less bone volume"}]}
